# Legend:
# HeLa and U87MG xenograft = experiment: In vivo NIR fluorescence imaging, results not split by tumor model (organs, tumor-to-background ratios, retention); parameters: species or system mice
# Procedure: (§1) To evaluate the tumor-targeting characteristics of DZ-TCO derivatives, DZ-1-TCO, DZ-Lys-TCO, and DZ-Lys-PEG4-TCO were administered to HeLa and U87MG xenograft-bearing nude mice (100 μL of 50 μM, n = 3 per group). In vivo fluorescence imaging was conducted at 4, 24, 48, 72, and 96 h after TCO compound injection.
# (§2) Female BALB/c nude mice (4–6 weeks old; 14–20 g), obtained from Beijing Vital River Laboratory Animal Technology Co., Ltd. (Beijing, China), were subcutaneously inoculated with 5 × 10^6 HeLa or U87MG cells suspended in 100 μL PBS into the right flank. Tumor growth was monitored every 2–3 days using digital calipers, and experiments were initiated when tumor volumes reached approximately 150–300 mm^3, calculated using the formula Volume = (length × width^2)/2.
# To assess the tumor-targeting capability and clearance kinetics of DZ-TCO precursors, 100 µL of each compound ([…] in PBS) was administered intravenously via the tail vein. Whole-body fluorescence imaging was performed at predetermined time points ([…]) using the IVIS Spectrum imaging system (PerkinElmer, Shelton, CT, USA) (excitation/emission, 745/820 nm) with automatic subtraction of background fluorescence during the acquisition. Fluorescence signals were acquired under standardized exposure settings, and region-of-interest (ROI) analysis was conducted using Living Image software version 4.4 (PerkinElmer) to quantify fluorescence intensity in the tumor and major organs.
# HeLa xenograft = experiment: In vivo NIR fluorescence imaging, HeLa xenograft-bearing nude mice; conditions: 24 h post-injection
# Procedure: as §1, §2
# To assess the tumor-targeting capability and clearance kinetics of DZ-TCO precursors, 100 µL of each compound ([…] in PBS) was administered intravenously via the tail vein. Whole-body fluorescence imaging was performed at predetermined time points (4, 24, 48, 72, and 96 h post-injection) using the IVIS Spectrum imaging system (PerkinElmer, Shelton, CT, USA) (excitation/emission, 745/820 nm) with automatic subtraction of background fluorescence during the acquisition. Fluorescence signals were acquired under standardized exposure settings, and region-of-interest (ROI) analysis was conducted using Living Image software version 4.4 (PerkinElmer) to quantify fluorescence intensity in the tumor and major organs.
# [1] = Partition coefficient (log p), n-octanol/PBS; assay type: physicochemical
# Procedure: (§3) ^68GaCl3 (5 mL, 20 mCi) and DOTA-Tz (50 μg) were mixed in a reaction vial. The pH was adjusted to 4.0–4.5 by adding 1 M sodium acetate, and the mixture was heated at 95 °C for 15 min without further purification. Radiochemical purity was confirmed by RP-HPLC. In vitro stability of ^68Ga-DOTA-Tz was assessed by incubating aliquots in 50% FBS or 50% PBS at 37 °C for 30 min, 1 h, 2 h, and 4 h. The partition coefficient (log p) was determined by mixing 1 mL of n-octanol with 1 mL of PBS containing the tracer, vortexing, and centrifuging at 3000 rpm for 5 min. Samples (0.1 mL) from both the organic and aqueous phases were withdrawn, and their radioactivity was measured using a γ-counter (PerkinElmer Wizard, Shelton, CT, USA).
# [2] = In vitro stability in 50% PBS; assay type: physicochemical; conditions: 37 °C
# Procedure: as §3
# HeLa tumors = experiment: Pretargeting biodistribution (γ-counter) of DZ-Lys-TCO and ^68Ga-DOTA-H-Tz; assay type: in vivo, mice; conditions: DZ-Lys-TCO 48 h pretargeting interval
# Procedure: To assess the in vivo biodistribution of the pretargeting system, female BALB/c nude mice bearing HeLa tumors (n = 3) were first injected intravenously with DZ-TCO. After 48 h, 0.74 MBq of ^68Ga-DOTA-H-Tz was administered via the tail vein. At 30, 60, and 120 min post-injection, mice were euthanized, and tissues including blood, tumor, liver, kidney, spleen, heart, lung, muscle, stomach, intestines, brain, and bone were excised, weighed, and counted using a γ-counter (Wizard2, PerkinElmer, Shelton, CT, USA). Radiotracer uptake was expressed as the percentage of injected dose per gram of tissue (%ID/g). Tumor-to-organ uptake ratios were calculated accordingly.
# [3] = In vitro stability in 50% fetal bovine serum (FBS); assay type: in vitro ADME
# Procedure: as §3
# subcutaneous tumors = experiment: Pretargeted PET imaging with DZ-Lys-TCO and ^68Ga-DOTA-H-Tz at different intervals; assay type: in vivo, mice; conditions: DZ-Lys-TCO pre-injected
# Procedure: To evaluate in vivo tumor targeting and bioorthogonal reaction kinetics, female BALB/c nude mice bearing subcutaneous tumors were intravenously injected with […] of each DZ-TCO precursor in phosphate-buffered saline (PBS). At predefined intervals (24, 48, or 72 h post-injection), […] of ^68Ga-labeled tetrazine probe (^68Ga-DOTA-Me-Tz or ^68Ga-DOTA-H-Tz; 3.7 MBq in PBS) was administered via the tail vein. PET imaging was performed using the IRIS system (Inviscan, Paris, France) at 30 min, 1 h, and 2 h post-injection under 2% isoflurane anesthesia. Image reconstruction and quantitative analysis were conducted using Inveon Research Workplace and OsiriX MD software version 10.0.4. Regions of interest (ROIs) were manually defined over tumors and major organs, and radiotracer uptake was expressed as the percentage of the injected dose per gram of tissue (%ID/g).
smiles,measurement,setting,value
CC1(C)C(=CC=C2CCCC(C=CC3=[N+](CCCCS(=O)(=O)[O-])c4ccccc4C3(C)C)=C2Cl)N(CCCCCC(=O)NCCCCC(N)C(=O)NCCOCCOCCOCCOCCNC(=O)OC2CCC=CCCC2)c2ccccc21 (centres unmarked) [DZ-Lys-PEG4-TCO],tumor-to-background fluorescence ratio,HeLa and U87MG xenograft; 4 h,737.00 ± 159.93
same,tumor-to-background fluorescence ratio,HeLa and U87MG xenograft; 24 h,1303.33 ± 116.76
same,time of peak tumor fluorescence signal,HeLa and U87MG xenograft; post-injection,24 h
same,tumor fluorescence signal remained detectable (time post-injection),HeLa and U87MG xenograft; post-injection,96 h
same,tumor fluorescence intensity,HeLa xenograft,1.20 × 10^10 p/s/cm^2/sr
O=C([O-])CN1CCN(CC(=O)[O-])CCN(CC(=O)NCCCCNC(=O)Cc2ccc(-c3nncnn3)cc2)CCN(CC(=O)[O-])CC1.[68Ga+3] [^68Ga-DOTA-H-Tz],log p,[1],−3.57 ± 0.21
same,radiochemical purity in PBS after 4 h,[2],98.76 ± 0.52%
same,Blood uptake,HeLa tumors; 30 min,2.96 ± 0.11 %ID/g
same,Bone uptake,HeLa tumors; 30 min,0.64 ± 0.27 %ID/g
same,Brain uptake,HeLa tumors; 30 min,0.37 ± 0.30 %ID/g
same,Heart uptake,HeLa tumors; 30 min,1.34 ± 0.53 %ID/g
same,Intestine uptake,HeLa tumors; 30 min,1.97 ± 0.38 %ID/g
same,Kidney uptake,HeLa tumors; 30 min,10.71 ± 1.34 %ID/g
same,Lung uptake,HeLa tumors; 30 min,2.38 ± 1.41 %ID/g
same,Muscle uptake,HeLa tumors; 30 min,0.97 ± 0.21 %ID/g
same,Spleen uptake,HeLa tumors; 30 min,1.03 ± 0.08 %ID/g
same,Stomach uptake,HeLa tumors; 30 min,1.16 ± 0.13 %ID/g
same,T/B (tumor-to-blood ratio),HeLa tumors; 30 min,1.18 ± 0.55
same,T/K (tumor-to-kidney ratio),HeLa tumors; 30 min,0.32 ± 0.14
same,T/L (tumor-to-liver ratio),HeLa tumors; 30 min,1.18 ± 0.28
same,liver uptake,HeLa tumors; 30 min,2.95 ± 1.04 %ID/g
same,tumor uptake,HeLa tumors; 30 min,3.53 ± 1.76 %ID/g
same,Blood uptake,HeLa tumors; 60 min,1.05 ± 0.29 %ID/g
same,Bone uptake,HeLa tumors; 60 min,0.52 ± 0.20 %ID/g
same,Brain uptake,HeLa tumors; 60 min,0.10 ± 0.03 %ID/g
same,Heart uptake,HeLa tumors; 60 min,0.78 ± 0.58 %ID/g
same,Intestine uptake,HeLa tumors; 60 min,0.59 ± 0.08 %ID/g
same,Kidney uptake,HeLa tumors; 60 min,6.54 ± 1.95 %ID/g
same,Lung uptake,HeLa tumors; 60 min,0.50 ± 0.18 %ID/g
same,Muscle uptake,HeLa tumors; 60 min,0.38 ± 0.15 %ID/g
same,Spleen uptake,HeLa tumors; 60 min,0.91 ± 0.70 %ID/g
same,Stomach uptake,HeLa tumors; 60 min,0.83 ± 0.30 %ID/g
same,T/B (tumor-to-blood ratio),HeLa tumors; 60 min,1.63 ± 0.53
same,T/K (tumor-to-kidney ratio),HeLa tumors; 60 min,0.25 ± 0.05
same,T/L (tumor-to-liver ratio),HeLa tumors; 60 min,1.08 ± 0.27
same,T/M (tumor-to-muscle ratio),HeLa tumors; 60 min,5.11 ± 3.51
same,liver uptake,HeLa tumors; 60 min,1.56 ± 0.49 %ID/g
same,tumor uptake,HeLa tumors; 60 min,1.72 ± 0.87 %ID/g
same,Blood uptake,HeLa tumors; 120 min,0.64 ± 0.18 %ID/g
same,Bone uptake,HeLa tumors; 120 min,0.08 ± 0.03 %ID/g
same,Brain uptake,HeLa tumors; 120 min,0.03 ± 0.01 %ID/g
same,Heart uptake,HeLa tumors; 120 min,0.17 ± 0.03 %ID/g
same,Intestine uptake,HeLa tumors; 120 min,0.11 ± 0.08 %ID/g
same,Kidney uptake,HeLa tumors; 120 min,3.28 ± 1.00 %ID/g
same,Lung uptake,HeLa tumors; 120 min,0.14 ± 0.02 %ID/g
same,Muscle uptake,HeLa tumors; 120 min,0.07 ± 0.02 %ID/g
same,Spleen uptake,HeLa tumors; 120 min,0.24 ± 0.06 %ID/g
same,Stomach uptake,HeLa tumors; 120 min,0.10 ± 0.05 %ID/g
same,T/B (tumor-to-blood ratio),HeLa tumors; 120 min,1.39 ± 0.74
same,T/K (tumor-to-kidney ratio),HeLa tumors; 120 min,0.26 ± 0.10
same,T/L (tumor-to-liver ratio),HeLa tumors; 120 min,1.07 ± 0.05
same,T/M (tumor-to-muscle ratio),HeLa tumors; 120 min,10.92 ± 0.31
same,liver uptake,HeLa tumors; 120 min,0.76 ± 0.23 %ID/g
same,tumor uptake,HeLa tumors; 120 min,0.82 ± 0.28 %ID/g
same,"Bone uptake, consistently",HeLa tumors; all time points,< 0.70 %ID/g
same,radiochemical purity in FBS at 4 h,"[3]; 50% FBS, 37 °C",98.53 ± 0.58%
same,radiochemical stability after 4 h,[3]; PBS and serum,> 85%
same,maximum T/M ratio,subcutaneous tumors; 24 h interval,5.31 ± 0.48
same,liver uptake,"subcutaneous tumors; 24 h interval, 30 min p.i.",2.61 ± 0.53 %ID/g
same,tumor uptake,"subcutaneous tumors; 24 h interval, 30 min p.i.",2.64 ± 0.73 %ID/g
same,T/L ratio,"subcutaneous tumors; 24 h interval, 60 min p.i.",1.01 ± 0.08
same,liver uptake,"subcutaneous tumors; 24 h interval, 60 min p.i.",1.15 ± 0.16 %ID/g
same,tumor uptake,"subcutaneous tumors; 24 h interval, 60 min p.i.",1.18 ± 0.25 %ID/g
same,liver uptake,"subcutaneous tumors; 24 h interval, 120 min p.i.",0.91 ± 0.16 %ID/g
same,tumor uptake,"subcutaneous tumors; 24 h interval, 120 min p.i.",0.79 ± 0.14 %ID/g
same,T/L ratio,subcutaneous tumors; 48 h interval,1.35 ± 0.26
same,T/M ratio (highest),subcutaneous tumors; 48 h interval,8.30 ± 3.39
same,tumor uptake,"subcutaneous tumors; 48 h interval, 30 min p.i.",3.24 ± 0.95 %ID/g
same,tumor uptake,"subcutaneous tumors; 48 h interval, 120 min p.i.",0.96 ± 0.29 %ID/g
same,maximum T/M ratio,subcutaneous tumors; 72 h interval,5.84 ± 1.49
same,liver uptake,"subcutaneous tumors; 72 h interval, 30 min p.i.",2.32 ± 0.79 %ID/g
same,tumor uptake,"subcutaneous tumors; 72 h interval, 30 min p.i.",1.89 ± 0.57 %ID/g
same,T/L ratio,"subcutaneous tumors; 72 h interval, 60 min p.i.",0.98 ± 0.10
same,liver uptake,"subcutaneous tumors; 72 h interval, 60 min p.i.",1.40 ± 0.43 %ID/g
same,tumor uptake,"subcutaneous tumors; 72 h interval, 60 min p.i.",1.35 ± 0.31 %ID/g
same,liver uptake,"subcutaneous tumors; 72 h interval, 120 min p.i.",0.97 ± 0.05 %ID/g
same,tumor uptake,"subcutaneous tumors; 72 h interval, 120 min p.i.",0.91 ± 0.31 %ID/g

# Source: paper PMC12735951, “A Bioorthogonal TCO–Tetrazine-Based Pretargeted PET/NIRF Platform Enabling High-Contrast Tumor Imaging” (Pharmaceuticals, 2025)
